In ChEMBL document CHEMBL1201862, “PubChem BioAssay data set” (2004):
The source made the active and inactive calls.

Experiments:
[1] = biological target: Voltage-dependent T-type calcium channel subunit alpha-1H (Homo sapiens, UniProt O95180); assay type: functional;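 further: channel activity triggered by adding a high calcium stimulation buffer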
[2] = biological target: T1, Cytochrome P450 1A2 (Homo sapiens, UniProt P05177);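 further: PubChem cytochrome P450 panel assay, CYP1A2 panel member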
T1 sequence (P05177 whole entry): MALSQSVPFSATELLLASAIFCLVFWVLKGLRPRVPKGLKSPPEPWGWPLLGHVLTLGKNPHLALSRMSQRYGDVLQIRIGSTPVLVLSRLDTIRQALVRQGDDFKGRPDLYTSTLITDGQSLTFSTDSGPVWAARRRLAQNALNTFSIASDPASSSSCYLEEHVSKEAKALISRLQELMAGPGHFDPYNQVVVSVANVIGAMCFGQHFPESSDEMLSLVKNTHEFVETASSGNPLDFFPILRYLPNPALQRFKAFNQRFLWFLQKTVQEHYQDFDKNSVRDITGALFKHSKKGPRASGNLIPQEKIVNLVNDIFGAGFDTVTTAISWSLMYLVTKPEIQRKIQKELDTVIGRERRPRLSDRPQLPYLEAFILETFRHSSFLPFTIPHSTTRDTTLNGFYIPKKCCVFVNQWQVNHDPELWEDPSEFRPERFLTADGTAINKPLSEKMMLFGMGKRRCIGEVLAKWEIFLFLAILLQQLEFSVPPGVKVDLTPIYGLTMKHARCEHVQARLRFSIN

[3] = biological target: Cytochrome P450 3A4 (Homo sapiens, UniProt P08684);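 further: CYP3A4 tested as one member of a cytochrome P450 panel screen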
[4] = biological target: Mu-type opioid receptor (Homo sapiens, UniProt P35372); assay type: functional, cell-based;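 further: U2OS cells with beta-arrestin recruitment to OPRM1 by beta-gal complementation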
[5] = biological target: 5-hydroxytryptamine receptor 2A (Mus musculus, UniProt P35363); assay type: functional, cell-based;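 further: CHO-K1 cells with tagged receptor and beta-arrestin; agonist potency measured as compound-induced activation of the receptor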
[6] = biological target: T2, Calpain-2 catalytic subunit (Sus scrofa, UniProt P43367); assay: m-calpain protease blockers, concentration series – biochemical, fluorogenic peptide substrate, dose response (AID 1420); assay type: functional
T2 sequence (P43367 whole entry): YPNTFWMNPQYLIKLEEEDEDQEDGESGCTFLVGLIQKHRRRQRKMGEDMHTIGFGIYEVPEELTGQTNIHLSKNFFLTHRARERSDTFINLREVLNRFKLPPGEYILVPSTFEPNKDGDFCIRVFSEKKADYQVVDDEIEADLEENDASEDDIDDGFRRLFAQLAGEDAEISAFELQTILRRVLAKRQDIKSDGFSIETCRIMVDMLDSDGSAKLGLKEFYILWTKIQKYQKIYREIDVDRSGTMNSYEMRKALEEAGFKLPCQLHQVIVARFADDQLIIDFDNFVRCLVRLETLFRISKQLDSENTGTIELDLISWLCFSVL

[7] = biological target: T3, Short transient receptor potential channel 4 (Mus musculus, UniProt Q9QUQ5); assay: block of DAMGO-driven TRPC4 calcium entry – cell-based, HEK293 TRPC4/mu-opioid, Fluo-4 calcium, dose response (AID 434942); assay type: functional;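 further: potency of inhibitors blocking the TRPC4 calcium response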
T3 sequence (Q9QUQ5 whole entry): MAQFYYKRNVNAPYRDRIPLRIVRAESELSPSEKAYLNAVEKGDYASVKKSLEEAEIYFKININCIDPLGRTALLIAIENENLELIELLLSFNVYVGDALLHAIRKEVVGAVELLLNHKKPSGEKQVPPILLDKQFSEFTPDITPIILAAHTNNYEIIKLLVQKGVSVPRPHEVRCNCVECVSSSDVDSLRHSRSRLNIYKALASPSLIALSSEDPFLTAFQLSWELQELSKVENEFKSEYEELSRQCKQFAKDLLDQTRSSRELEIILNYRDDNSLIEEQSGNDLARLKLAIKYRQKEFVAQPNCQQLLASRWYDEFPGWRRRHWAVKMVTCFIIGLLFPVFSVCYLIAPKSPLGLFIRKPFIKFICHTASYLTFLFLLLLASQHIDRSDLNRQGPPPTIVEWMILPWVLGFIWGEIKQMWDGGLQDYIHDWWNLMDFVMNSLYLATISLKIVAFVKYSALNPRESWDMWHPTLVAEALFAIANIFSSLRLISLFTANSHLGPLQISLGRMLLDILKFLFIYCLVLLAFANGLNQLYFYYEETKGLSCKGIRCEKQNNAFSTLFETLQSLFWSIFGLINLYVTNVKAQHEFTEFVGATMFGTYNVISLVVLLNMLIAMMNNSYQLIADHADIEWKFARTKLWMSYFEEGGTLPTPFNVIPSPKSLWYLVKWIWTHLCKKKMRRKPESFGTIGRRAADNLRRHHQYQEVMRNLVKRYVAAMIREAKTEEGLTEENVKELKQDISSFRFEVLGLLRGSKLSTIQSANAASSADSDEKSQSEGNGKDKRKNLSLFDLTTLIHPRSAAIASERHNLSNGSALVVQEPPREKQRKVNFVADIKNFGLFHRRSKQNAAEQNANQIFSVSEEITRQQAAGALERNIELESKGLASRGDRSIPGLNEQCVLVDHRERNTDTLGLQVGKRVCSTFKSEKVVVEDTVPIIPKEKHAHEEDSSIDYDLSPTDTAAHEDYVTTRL

[8] = biological target: Prothrombin (Homo sapiens, UniProt P00734); assay: Thrombin 1536 HTS Dose Response Confirmation. [Related pubchem assays: 1046 (Thrombin 1536 HTS; hits were confirmed in this assay)]; assay type: functional
[9] = biological target: T4, Fatty acid synthase (Homo sapiens, UniProt P49327); assay: inhibition of human FAS-TE enzyme activity – biochemical, endpoint fluorescence intensity, uHTS hits, dose response (AID 624327); assay type: functional;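 further: fluorescence from hydrolysis of an O-methyl fluorescein acyl ester substrate by the enzyme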
[10] = biological target: T4, Fatty acid synthase; assay: inhibition of human FAS-TE enzyme activity – biochemical, kinetic fluorescence intensity, dose response (AID 624326); assay type: functional;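 further: rate of fluorescence rise from hydrolysis of a fluorogenic O-methyl fluorescein ester substrate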
[11] = biological target: T5, Heat shock factor protein 1 (Mus musculus, UniProt P38532); assay: decrease of HSF1-responsive luciferase luminescence – cell-based, NIH3T3, dose retest, confirmation (AID 2382); assay type: functional;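 further: NIH3T3 fibroblasts with HSF1-driven luciferase reporter stressed by proteasome inhibitor MG132; luminescence from HSF1-driven luciferase expression after 8 hours of MG132 stress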
T5 sequence (P38532 whole entry): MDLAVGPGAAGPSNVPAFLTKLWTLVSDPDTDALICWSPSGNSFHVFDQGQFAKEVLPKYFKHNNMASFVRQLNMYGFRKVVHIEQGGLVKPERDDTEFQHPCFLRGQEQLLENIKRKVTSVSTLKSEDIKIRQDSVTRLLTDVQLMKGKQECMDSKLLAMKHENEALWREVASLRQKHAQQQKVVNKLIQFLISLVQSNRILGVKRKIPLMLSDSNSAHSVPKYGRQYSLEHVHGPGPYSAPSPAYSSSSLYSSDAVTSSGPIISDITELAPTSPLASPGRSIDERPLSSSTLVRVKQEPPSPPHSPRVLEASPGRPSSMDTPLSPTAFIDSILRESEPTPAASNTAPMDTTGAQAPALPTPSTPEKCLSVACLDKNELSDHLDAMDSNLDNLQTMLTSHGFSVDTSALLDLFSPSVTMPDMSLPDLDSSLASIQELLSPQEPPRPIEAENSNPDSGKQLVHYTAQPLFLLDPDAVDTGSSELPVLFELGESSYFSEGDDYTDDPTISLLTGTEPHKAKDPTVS

[12] = biological target: T6, Corticotropin-releasing factor receptor 2/Corticotropin-releasing factor-binding protein (Homo sapiens, UniProt P24387+Q13324); assay: Dose Response confirmation of uHTS hits for small molecule antagonists of the CRF-binding protein and CRF-R2 receptor complex.; assay type: functional; conditions: read-out: IC50_Mean
T6 sequence (Q13324 whole entry): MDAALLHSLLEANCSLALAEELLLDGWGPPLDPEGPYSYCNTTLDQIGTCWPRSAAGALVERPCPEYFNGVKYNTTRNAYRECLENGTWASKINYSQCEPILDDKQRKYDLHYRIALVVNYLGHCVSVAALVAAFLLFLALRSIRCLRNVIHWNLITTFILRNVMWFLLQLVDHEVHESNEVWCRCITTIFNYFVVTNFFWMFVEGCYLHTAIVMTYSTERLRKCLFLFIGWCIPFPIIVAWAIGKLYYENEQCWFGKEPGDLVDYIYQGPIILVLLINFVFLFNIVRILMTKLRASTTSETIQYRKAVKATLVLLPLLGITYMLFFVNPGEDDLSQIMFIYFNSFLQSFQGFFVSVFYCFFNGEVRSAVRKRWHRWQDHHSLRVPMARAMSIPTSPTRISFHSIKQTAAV
T6 sequence (P24387 whole entry): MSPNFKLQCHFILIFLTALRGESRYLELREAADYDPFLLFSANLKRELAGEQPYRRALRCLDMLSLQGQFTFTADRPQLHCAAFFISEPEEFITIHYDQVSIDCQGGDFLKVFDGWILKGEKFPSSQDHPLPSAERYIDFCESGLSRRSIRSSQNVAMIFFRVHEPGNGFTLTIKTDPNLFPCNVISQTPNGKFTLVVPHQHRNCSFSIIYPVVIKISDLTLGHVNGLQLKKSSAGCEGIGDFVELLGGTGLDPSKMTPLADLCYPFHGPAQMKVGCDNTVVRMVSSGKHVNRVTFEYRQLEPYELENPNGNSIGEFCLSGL

[13] = biological target: T6, Corticotropin-releasing factor receptor 2/Corticotropin-releasing factor-binding protein; assay: activators of CRF receptor 2 with binding protein – uHTS hits, confirmation (AID 602473); assay type: functional; conditions: read-out: EC50_Mean
[14] = viability of PTEN-deleted HCT116 cells – cell-based, HCT116 PTEN knockout, dose response (AID 1047); assay type: functional;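 further: HCT116 colon tumor cells with PTEN knocked out; cells exposed to compound for 60 hours before readout; potency for loss of cell viability measured by luminescence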
[15] = viability of HCT116 lacking mutant beta-catenin – cell-based, human colon tumor, dose response (AID 1045); assay type: functional;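 further: HCT116 colon tumor cells with beta catenin knocked out; cells exposed to compound for 60 hours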
[16] = biological target: Glucose-6-phosphate 1-dehydrogenase (Homo sapiens, UniProt P11413); assay: inhibition of Homo sapiens G6PD, dose series – biochemical, fluorescence, selectivity assay for P. falciparum G6PD inhibitor project, dose response (AID 504792); assay type: functional
[17] = biological target: Induced myeloid leukemia cell differentiation protein Mcl-1 (Homo sapiens, UniProt Q07820); assay type: functional
[18] = biological target: Cytochrome P450 2C19 (Homo sapiens, UniProt P33261); assay: Cytochrome panel assay with activity outcomes. Panel member name: p450-cyp2c19 Compounds with AC50 equal or less than 10 uM are considered active; assay type: functional; conditions: read-out: AC50
[19] = biological target: Cytochrome P450 2D6 (Homo sapiens, UniProt P10635);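 further: CYP2D6 member of a cytochrome P450 panel assay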
[20] = biological target: Cytochrome P450 2C9 (Homo sapiens, UniProt P11712)
[21] = cells; assay type: functional, cell-based
[22] = cells; assay type: functional, cell-based; remark: listed apart in the source

Voltage-dependent T-type calcium channel subunit alpha-1H, sequence (O95180 whole entry): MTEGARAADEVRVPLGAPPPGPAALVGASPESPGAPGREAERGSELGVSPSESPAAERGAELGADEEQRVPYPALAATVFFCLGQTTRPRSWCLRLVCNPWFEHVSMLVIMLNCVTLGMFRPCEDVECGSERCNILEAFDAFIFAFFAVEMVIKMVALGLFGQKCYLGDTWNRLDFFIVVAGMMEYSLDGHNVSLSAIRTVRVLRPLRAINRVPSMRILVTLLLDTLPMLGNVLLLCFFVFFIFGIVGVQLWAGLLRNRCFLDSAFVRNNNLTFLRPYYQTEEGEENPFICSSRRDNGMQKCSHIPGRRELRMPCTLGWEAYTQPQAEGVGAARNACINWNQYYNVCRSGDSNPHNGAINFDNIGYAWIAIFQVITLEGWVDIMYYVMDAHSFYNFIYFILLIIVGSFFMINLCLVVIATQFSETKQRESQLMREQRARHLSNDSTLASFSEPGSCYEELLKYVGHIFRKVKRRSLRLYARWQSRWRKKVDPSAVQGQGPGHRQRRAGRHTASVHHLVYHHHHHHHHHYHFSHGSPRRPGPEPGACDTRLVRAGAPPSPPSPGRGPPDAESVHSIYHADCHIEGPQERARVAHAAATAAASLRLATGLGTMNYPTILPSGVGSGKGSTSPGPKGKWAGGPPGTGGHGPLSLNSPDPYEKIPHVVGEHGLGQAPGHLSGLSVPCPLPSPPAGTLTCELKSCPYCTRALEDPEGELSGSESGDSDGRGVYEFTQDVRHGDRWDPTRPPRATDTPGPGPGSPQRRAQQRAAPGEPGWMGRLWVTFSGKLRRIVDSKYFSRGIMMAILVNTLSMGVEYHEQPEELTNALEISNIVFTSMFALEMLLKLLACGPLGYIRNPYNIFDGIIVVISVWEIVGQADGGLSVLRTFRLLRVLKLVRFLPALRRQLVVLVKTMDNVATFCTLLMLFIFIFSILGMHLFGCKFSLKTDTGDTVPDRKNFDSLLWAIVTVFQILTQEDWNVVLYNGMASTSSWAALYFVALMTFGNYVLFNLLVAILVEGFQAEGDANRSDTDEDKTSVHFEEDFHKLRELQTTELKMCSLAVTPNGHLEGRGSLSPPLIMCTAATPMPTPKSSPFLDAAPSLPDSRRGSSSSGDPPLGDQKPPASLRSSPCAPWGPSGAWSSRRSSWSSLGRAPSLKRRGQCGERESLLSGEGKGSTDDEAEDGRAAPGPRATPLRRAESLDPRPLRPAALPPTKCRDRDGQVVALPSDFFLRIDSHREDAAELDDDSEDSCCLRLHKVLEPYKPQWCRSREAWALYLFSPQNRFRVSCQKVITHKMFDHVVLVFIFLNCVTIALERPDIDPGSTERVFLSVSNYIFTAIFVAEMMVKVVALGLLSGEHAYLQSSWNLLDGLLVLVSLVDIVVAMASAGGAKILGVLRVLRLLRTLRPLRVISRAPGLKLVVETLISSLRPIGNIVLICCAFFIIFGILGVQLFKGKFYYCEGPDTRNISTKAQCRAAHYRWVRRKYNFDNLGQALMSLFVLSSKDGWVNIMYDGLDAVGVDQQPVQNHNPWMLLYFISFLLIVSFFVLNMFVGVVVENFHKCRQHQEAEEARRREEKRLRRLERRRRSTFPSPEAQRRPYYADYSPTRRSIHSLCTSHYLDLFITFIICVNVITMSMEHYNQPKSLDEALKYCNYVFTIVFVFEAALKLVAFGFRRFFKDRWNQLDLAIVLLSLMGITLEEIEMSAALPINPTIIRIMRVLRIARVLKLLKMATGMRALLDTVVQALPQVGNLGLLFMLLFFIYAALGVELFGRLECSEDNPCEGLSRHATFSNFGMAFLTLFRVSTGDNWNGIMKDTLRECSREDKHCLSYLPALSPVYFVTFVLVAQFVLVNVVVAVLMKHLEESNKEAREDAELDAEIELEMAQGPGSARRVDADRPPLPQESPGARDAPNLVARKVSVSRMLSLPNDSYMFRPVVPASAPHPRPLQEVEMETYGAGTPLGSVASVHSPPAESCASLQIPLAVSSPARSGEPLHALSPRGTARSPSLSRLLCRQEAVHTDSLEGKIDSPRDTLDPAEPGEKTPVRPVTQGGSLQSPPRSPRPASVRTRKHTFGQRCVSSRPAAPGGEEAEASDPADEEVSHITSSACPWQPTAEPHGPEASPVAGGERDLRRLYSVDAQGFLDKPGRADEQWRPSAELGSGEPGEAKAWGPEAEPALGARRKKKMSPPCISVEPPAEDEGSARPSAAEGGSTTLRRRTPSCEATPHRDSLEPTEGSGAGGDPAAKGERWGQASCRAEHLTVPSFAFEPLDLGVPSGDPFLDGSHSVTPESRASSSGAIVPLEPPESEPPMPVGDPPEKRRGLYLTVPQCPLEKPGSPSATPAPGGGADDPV
Glucose-6-phosphate 1-dehydrogenase, sequence (P11413 whole entry): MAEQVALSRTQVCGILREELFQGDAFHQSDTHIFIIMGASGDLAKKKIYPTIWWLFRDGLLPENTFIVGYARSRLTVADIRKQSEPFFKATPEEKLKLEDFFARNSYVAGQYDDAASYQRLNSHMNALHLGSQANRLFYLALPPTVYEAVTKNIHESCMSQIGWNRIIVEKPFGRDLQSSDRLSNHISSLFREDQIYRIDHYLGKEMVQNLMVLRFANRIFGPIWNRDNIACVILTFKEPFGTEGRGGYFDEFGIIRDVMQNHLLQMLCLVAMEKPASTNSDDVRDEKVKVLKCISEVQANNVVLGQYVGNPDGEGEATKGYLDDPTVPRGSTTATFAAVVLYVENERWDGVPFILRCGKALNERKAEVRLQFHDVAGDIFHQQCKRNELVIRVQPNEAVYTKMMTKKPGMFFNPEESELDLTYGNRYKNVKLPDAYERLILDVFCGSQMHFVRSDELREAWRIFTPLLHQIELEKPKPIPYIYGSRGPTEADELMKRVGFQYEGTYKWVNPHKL
Mu-type opioid receptor, sequence (P35372 whole entry): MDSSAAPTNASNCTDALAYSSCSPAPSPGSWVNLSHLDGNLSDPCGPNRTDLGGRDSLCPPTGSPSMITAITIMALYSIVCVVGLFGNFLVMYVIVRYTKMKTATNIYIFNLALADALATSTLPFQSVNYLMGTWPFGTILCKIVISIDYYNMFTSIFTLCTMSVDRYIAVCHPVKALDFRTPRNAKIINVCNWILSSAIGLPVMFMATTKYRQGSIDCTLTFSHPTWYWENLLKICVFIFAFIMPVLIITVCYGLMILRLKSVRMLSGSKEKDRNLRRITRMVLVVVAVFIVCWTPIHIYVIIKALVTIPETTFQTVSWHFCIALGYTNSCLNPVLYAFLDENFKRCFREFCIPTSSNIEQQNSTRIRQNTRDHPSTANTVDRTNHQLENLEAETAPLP
5-hydroxytryptamine receptor 2A, sequence (P35363 whole entry): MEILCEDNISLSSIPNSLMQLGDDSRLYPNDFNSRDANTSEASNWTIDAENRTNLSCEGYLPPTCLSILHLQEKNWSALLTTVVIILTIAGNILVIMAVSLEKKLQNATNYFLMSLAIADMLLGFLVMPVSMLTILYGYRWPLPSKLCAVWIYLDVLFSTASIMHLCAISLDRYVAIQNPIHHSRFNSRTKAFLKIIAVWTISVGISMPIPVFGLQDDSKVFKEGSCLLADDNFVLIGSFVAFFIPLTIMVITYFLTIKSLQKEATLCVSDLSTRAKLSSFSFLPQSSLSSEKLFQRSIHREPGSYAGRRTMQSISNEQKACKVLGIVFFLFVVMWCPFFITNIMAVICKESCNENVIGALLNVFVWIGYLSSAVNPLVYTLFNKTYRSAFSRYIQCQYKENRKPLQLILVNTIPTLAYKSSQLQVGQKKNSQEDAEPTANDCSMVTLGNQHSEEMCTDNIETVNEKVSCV
Cytochrome P450 2C9, sequence (P11712 whole entry): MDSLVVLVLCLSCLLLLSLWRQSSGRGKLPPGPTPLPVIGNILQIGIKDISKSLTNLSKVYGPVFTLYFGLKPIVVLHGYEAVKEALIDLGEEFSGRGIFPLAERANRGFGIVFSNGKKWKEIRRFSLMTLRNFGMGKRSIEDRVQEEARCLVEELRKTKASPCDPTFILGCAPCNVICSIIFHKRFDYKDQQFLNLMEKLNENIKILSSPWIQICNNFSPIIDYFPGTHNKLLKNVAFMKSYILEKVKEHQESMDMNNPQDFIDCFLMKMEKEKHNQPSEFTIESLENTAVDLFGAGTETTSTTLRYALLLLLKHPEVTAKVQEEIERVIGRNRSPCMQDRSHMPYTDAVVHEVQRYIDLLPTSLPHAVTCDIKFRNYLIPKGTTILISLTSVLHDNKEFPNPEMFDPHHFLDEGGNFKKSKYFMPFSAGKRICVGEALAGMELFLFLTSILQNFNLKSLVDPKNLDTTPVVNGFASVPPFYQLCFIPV
Induced myeloid leukemia cell differentiation protein Mcl-1, sequence (Q07820 whole entry): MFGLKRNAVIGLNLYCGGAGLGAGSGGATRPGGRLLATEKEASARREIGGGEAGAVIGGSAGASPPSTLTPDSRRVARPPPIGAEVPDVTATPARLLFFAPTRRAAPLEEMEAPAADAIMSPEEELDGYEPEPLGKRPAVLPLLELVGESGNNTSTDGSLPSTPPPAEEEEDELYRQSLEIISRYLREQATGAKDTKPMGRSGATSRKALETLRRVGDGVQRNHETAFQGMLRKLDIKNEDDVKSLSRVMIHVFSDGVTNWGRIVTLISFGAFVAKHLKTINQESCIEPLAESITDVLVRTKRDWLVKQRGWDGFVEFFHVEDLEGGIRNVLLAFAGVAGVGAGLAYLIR
Cytochrome P450 2D6, sequence (P10635 whole entry): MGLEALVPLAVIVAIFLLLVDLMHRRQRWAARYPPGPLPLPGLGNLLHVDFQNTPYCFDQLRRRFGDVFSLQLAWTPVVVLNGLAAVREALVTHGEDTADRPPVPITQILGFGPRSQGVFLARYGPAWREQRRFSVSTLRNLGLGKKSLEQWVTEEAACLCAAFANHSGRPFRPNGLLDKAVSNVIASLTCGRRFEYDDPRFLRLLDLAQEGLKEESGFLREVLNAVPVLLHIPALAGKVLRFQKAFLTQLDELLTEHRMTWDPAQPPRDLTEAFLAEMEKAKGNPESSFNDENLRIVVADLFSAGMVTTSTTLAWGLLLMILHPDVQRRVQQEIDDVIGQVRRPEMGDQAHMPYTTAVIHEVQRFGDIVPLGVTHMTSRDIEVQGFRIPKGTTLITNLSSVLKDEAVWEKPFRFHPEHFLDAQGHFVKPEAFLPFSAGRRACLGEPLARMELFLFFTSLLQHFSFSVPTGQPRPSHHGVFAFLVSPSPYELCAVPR

SMILES: CCC(C(=O)Nc1cccc(C(F)(F)F)c1)c1ccccc1 (stereo unspecified)
- EC50 [1]: 2.89 µM (active)
- AC50 [2]: 2.51 µM (inconclusive)
- AC50 [3]: 14.1 µM (inconclusive)

SMILES: O=S(=O)(c1ccc(OCC(O)CN2CCN(c3ccccc3O)CC2)cc1)N1CCOCC1 (stereo unspecified)
- EC50 [4]: 92.5 µM (inactive)
- EC50 [5]: 76.1 µM (inactive)

SMILES: COCCn1c(SCc2ccccc2F)nc2ccccc2c1=O
- IC50 [6]: 9.21 µM (not active)
- EC50 [7]: 1.88 µM (active)

SMILES: CCn1cc(C(=O)NCc2ccc3c(c2)OCO3)c(=O)c2cc(S(=O)(=O)N(C)C)ccc21
- IC50 [8]: 0.537 µM (active)
- IC50 [9]: 8.88 µM (active)
- IC50 [10]: 12.1 µM (active)

SMILES: CC(=O)c1cccc(OCC(O)CN2CC=C(c3ccccc3)CC2)c1 (stereo unspecified)
- EC50 [4]: 92.5 µM (inactive)
- EC50 [5]: 0.0752 µM (active)

SMILES: O=C(Oc1oc(-c2ccco2)nc1/C=N/c1ccccc1)c1ccoc1
- EC50 [11]: > 195 µM (not active)
- IC50 [8]: 1.37 µM (active)

SMILES: Cc1ccc(CN(C(=O)c2ccccc2[N+](=O)[O-])C2CCS(=O)(=O)C2)o1 (stereo unspecified)
- IC50 [12]: > 47.1 µM (inactive)
- EC50 [13]: > 53 µM (inactive)

SMILES: C=CCOc1ccc(/C=N/N2C(=O)C(CC(=O)Nc3ccc(F)cc3F)S/C2=N\C)cc1 (stereo unspecified)
- EC50 [14]: 17.6 µM (active)
- IC50 [6]: > 50 µM (not active)
- EC50 [15]: 79.4 µM (active)

SMILES: Cc1ccc(S(=O)(=O)Oc2cccc(/C=N/Nc3ccc(C(=O)O)cc3)c2)cc1
- IC50 [16]: 53.5 µM (inactive)

SMILES: O=C(CN1C(=O)C2CC=CCC2C1=O)Nc1nnc(SCc2ccc(Cl)cc2)s1 (stereo unspecified)
- EC50 [1]: 5.35 µM (active)

SMILES: Cc1ccc(N2CCN(C3=NC(=O)/C(=C\c4cccs4)S3)CC2)cc1
- IC50 [6]: 19.3 µM (not active)

SMILES: COc1ccc(CNc2nc3c(c(=O)n(Cc4ccc(Br)cc4)c(=O)n3C)n2C)cc1
- IC50 [6]: 2.3 µM (active)

SMILES: O=C(Nc1ccc(Cl)cc1)N1CCc2[nH]c3ccccc3c2C1
- IC50 [17]: 2.32 µM (not active)
- EC50 [1]: 0.802 µM (active)
- AC50 [18]: 2 µM (inconclusive)
- AC50 [19]: 22.4 µM (inconclusive)
- AC50 [20]: 3.98 µM (inconclusive)

SMILES: CCn1c(SCc2nc3scc(-c4ccccc4)c3c(=O)[nH]2)nnc1-c1cccs1
- IC50 [16]: > 80 µM (inactive)

SMILES: CC1CCC2=NN(C(=O)c3ccco3)C(O)(C(F)(F)F)C2C1 (stereo unspecified)
- IC50 [12]: > 47.1 µM (inactive)
- EC50 [13]: > 53 µM (inactive)

SMILES: CCOc1cccc(-c2c(C(=O)N/N=C/c3ccc(Br)cc3)nnn2-c2nonc2N)c1
- EC50 [21]: > 350 µM (not active)
- EC50 [22]: 160 µM (active)

SMILES: Cc1ccc(-c2noc(CSc3nnnn3C3CCCCC3)n2)cc1
- EC50 [1]: 1.95 µM (active)

SMILES: Cc1ccc(S(=O)(=O)N(C)C)cc1NC(=O)CSc1nc2cc(Cl)c[nH]c-2n1
- IC50 [16]: > 80 µM (inactive)

SMILES: O=C1c2ccccc2C(=O)N1CCc1csc(-c2ccc(F)cc2)n1
- IC50 [6]: > 50 µM (not active)

SMILES: C[C@H](NC(=O)Nc1ccc2c(c1)OCCO2)C(=O)O
- IC50 [12]: > 47.1 µM (inactive)
- EC50 [13]: > 53 µM (inactive)

SMILES: COc1cccc(/C=N\NC(=O)Cn2nnc3ccccc32)c1O
- EC50 [21]: 172 µM (active)
- EC50 [22]: > 350 µM (not active)

SMILES: COc1ccc(-c2nnc(N3CCCCC3)c3ccccc23)cc1
- EC50 [1]: 11.3 µM (active)
